One data set has as its system Apis mellifera. To be noted: acute, duration: 48 hours, mortality.
Another data set deals with Ictalurus punctatus. The note with it: acute; duration: 96 hours; mortality.
Another data set deals with Neomysis kadiakensis. The note with it: chronic/long-term; duration: 28 days; reproduction.
In another data set the test system is Oryctolagus sp. The note with it: developmental; development.
Another data set concerns Pimephales promelas. The note with it: chronic/long-term; duration: 56 days; mortality.
In the next data set the test system is Rattus norvegicus. To be noted: for NOAEL: gavage.
The subject of the next data set is Tagia sp. To be noted: chronic/long-term; mortality.
Where [1] appears, read: chronic, duration: 2 years, histopathology: neoplastic.

Values after ≈ are worked out from the molar mass of the structure shown.

Regarding `CC(C)NC(=O)N1CC(=O)N(c2cc(Cl)cc(Cl)c2)C1=O`, the LD50 is greater than 100 µg/piece in the data set with Apis mellifera (dermal); greater than 100 µg/piece in the data set with Apis mellifera (oral, unspecified); 3780 mg/kg-day in the data set with Colinus virginianus (acute, oral, mortality); greater than 2000 mg/kg-day in the data set on Rattus norvegicus (acute, oral, mortality). The molecule further displayed an NOEL in the data set with Colinus virginianus (reproduction developmental) of 22.3 mg/kg-day. The LC50 (usually the concentration lethal to half of the exposed cells or organisms) in the data set with Ictalurus punctatus came to 3.1 µg/mL (≈ 9.39 µM). The NOEC with Neomysis kadiakensis worked out at 0.0075 mg/L; with Pimephales promelas, 0.0731 mg/L; in the data set on Tagia sp. it was 1000 mg/kg. Moreover, the LOAEL (in general, the lowest tested level that showed an adverse finding) came to 20 mg/kg-day with Oryctolagus sp.; 6.1 mg/kg-day in the data set on Rattus norvegicus (setting [1]); 26.9 mg/kg-day in the data set with Rattus norvegicus (reproduction developmental, reproduction).

With `NC(=O)NC(=O)Nc1cc(Cl)c(O)c(Cl)c1` [N-(3,5-Dichloro-4-hydroxyphenyl)-2-imidodicarbonic diamide], the results for the LOAEL with Oryctolagus sp. and with Rattus norvegicus (setting [1]) were 20 mg/kg-day and 6.1 mg/kg-day, respectively.

Take `NC(CCC(=O)Nc1cc(Cl)cc(Cl)c1)C(=O)O` (stereo unspecified) [N-(3,5-Dichlorophenyl)glutamine]: the NOAEL (usually the highest dose or exposure tested at which no adverse effect was seen) was 7.5 mg/kg-day in the data set on Rattus norvegicus (short-term, duration: 28 days, oral, Wistar) and 1 mg/kg-day with Rattus norvegicus (subchronic, duration: 90 days, oral, hematological).

(Values after EPA's ToxValDB 9.5 (doi:10.2903/j.efsa.2016.4609).)
